Results on 2 compounds are retold here after patent publication US20240125678A1, “COMPOUND, CELLULAR VESICLE STAIN, AND METHOD FOR FLUORESCENT STAINING OF CELLULAR VESICLES” (National University Corporation Tokai National Higher …, priority 2021, published 2024).

SMILES strings stand for the structures.

Assay [1] relates to cellular vesicles of HEK293 cells. Kind of assay: Fluorescent staining of cellular vesicles in HEK293 cells. As to conditions: 0.3 μM, excitation 470 nm. It counts as cell-based, human. Here is the method:
Compound 1 was used to fluorescently stain cellular vesicles of HEK293 cells. The procedure is illustrated below. • (1) HEK293A cells (ThermoFisher) were plated in a glass bottom dish and cultured for 24 hours. […] Note that the measurement was performed with excitation at 470 nm.

The subject of assay [2] is cellular vesicles of B16F10 cells. Kind of assay: Specificity 3: staining in the presence of foreign substances (mouse dung). It counts as cell-based. To be noted: B16F10 cells mixed with mouse dung suspension; Compound 1 0.3 μM; CellMask reagent 1 μL. Here is the method: Intracellular vesicles were fluorescently stained by Compound 1 in the presence of foreign substances. The procedure is illustrated below. • (1) 100 mg of mouse dung was collected, and the collected dung was suspended in 10-fold volume (1 mL) of phosphate buffer. • (2) B16F10 cells were detached using trypsin EDTA (NACALAI TESQUE) and collected, and 1×10^4 cells were suspended in 100 μL of phosphate buffer and mixed with 10 μL of the mouse dung suspension of (1) . • (3) The suspension of the cells and the […] was spread on a glass bottom dish, and 300 μM of Compound 1 was added to have the final concentration of 0.3 μM. • (4) Measurement was performed by using the fluorescence microscope. Note that the measurement was performed with excitation at 470 nm.
Comparative example 2 is the same as Example 19 except that, instead of Compound 1, 1 μL of CellMask reagent (C10045 (ThermoFisher)) was added to the suspension of the cells and the dung. Note that the measurement was performed with excitation at 540 nm.

Assay [3] has the same test system. Kind of assay: Specificity 2: comparison with another cellular vesicle staining agent. Type of assay: cell-based, mouse. As to conditions: Compound 1 3 μM without washing, ExoSparkler Mem Dye-Red 1 μL/mL with washing. As for the experimental part: Compound 1 was used for fluorescent staining of intracellular vesicles. The procedure is illustrated below. • (1) 3×10^4 of B16F10 cells were plated in a glass bottom dish and cultured for 24 hours. • (2) Compound 1 was added to the culture medium to have the final concentration of 3 μM. • (3) Measurement was performed by using the fluorescence microscope. Note that the measurement was performed with excitation at 470 nm.
Comparative example 1 is the same as Example 18 except that, instead of Compound 1, 1 μL/mL of ExoSparkler Mem Dye-Red (340-09671 (Dojindo Laboratories)) was added to the culture medium, the culture medium was aspirated off after the addition of ExoSparkler Mem Dye-Red, and a new culture medium was added for washing. Note that the measurement was performed with excitation at 540 nm.

In assay [4] the test system is cellular vesicles of living B16F10 cells. Kind of assay: Specificity 1: staining of cellular vesicles of living versus fixed (dead) cells. It counts as cell-based, mouse. To be noted: B16F10, 0.3 μM, mixed fixed (dead) and living cells.
The subject of assay [5] is milk exosomes. Kind of assay: Calibration curve in exosome detection. As to conditions: 0.3 μM, milk exosomes 0.1 to 1 ng per well, fetal bovine serum/phosphate buffer.
Assay [6] concerns milk exosomes. Kind of assay: Fluorescent staining of exosomes. To be noted: 0.3 μM in phosphate buffer.
Assay [7] deals with cellular vesicles of mouse malignant melanoma cells B16F10. Kind of assay: Fluorescent staining of intracellular vesicles with Compound 1 and anti-CD63 antibody. It counts as cell-based.
The subject of assay [8] is cellular vesicles / autophagosomes of B16F10 cells. Kind of assay: Detection of autophagosomes using a PIKfyve inhibitor. Type of assay: cell-based, mouse. To be noted: 3 μM. As for the experimental part: An endosome-derived intracellular vesicle formation inhibitor (PIKfyve inhibitor) was used to detect autophagosomes. The procedure is illustrated below. • (1) 3×10^4 of B16F10 cells were plated in a glass bottom dish and cultured for 24 hours. • (2) Compound 1 was added to have the final concentration of 3 μM. • (3) Measurement was performed by using a fluorescence microscope. Note that the measurement was performed with excitation at 470 nm. • (4) PIKfyve inhibitor (HY-13228 (MedChemExpress)) was then added to the culture medium to have the final concentration of 10 μM, which was cultured for 1 hour. • (5) Measurement was performed by using the fluorescence microscope. • (6) PIKfyve inhibitor-containing culture medium was aspirated off, and washing operation was performed twice with a new culture medium, which was cultured with another new culture medium for 3 hours. • (7) Measurement was performed by using the fluorescence microscope.

For assay [9], the system named is cellular vesicles of keratinocyte cells (PSVK1). Kind of assay: Fluorescent staining of cellular vesicles in keratinocyte cells (PSVK1). It counts as cell-based, human. As to conditions: 0.3 μM, excitation 470 nm. As for the experimental part:
Compound 1 was used to fluorescently stain cellular vesicles of keratinocyte cells (PSVK1). The procedure is illustrated below. • (1) PSVK1 cells (obtained from National Institute of Biomedical Innovation, Health and Nutrition, Cell Bank) were plated in a glass bottom dish and cultured for 24 hours. […] Note that the measurement was performed with excitation at 470 nm.

Assay [10] relates to labeled milk exosomes in HEK293A cells. Kind of assay: Incorporation of labeled exosomes into cells. Type of assay: cell-based, human.
Assay [11] has as its system incorporation of labeled melanosomes into keratinocyte cells. Kind of assay: Inhibition of incorporation of labeled melanosomes into cells. Type of assay: cell-based. To be noted: inhibitor final concentration 10 μM, 12 hours, melanosomes labeled with Compound 1, excitation 488 nm. As for the experimental part:
Incorporation of melanosomes into cells was measured in the presence of a melanosome uptake inhibitor. […] As the melanosome uptake inhibitor, 6-shogaol (192-16161 (Fujifilm Wako)) was used. • (13) After 12 hours, the cells were washed twice with 100 μL of phosphate buffer. • (14) A plate reader (GroMax Multi (Promega)) was used to measure the labeled melanosomes. […]
Comparative Example 4 is the same as Example 29 except that the measurement with the plate reader was performed for absorbance at 450 nm.

In the case of `CN(C)c1ccc(CCCN(C)C2CCc3cc(OCCNc4ccc([N+](=O)[O-])c5nonc45)ccc32)cc1` (stereo not drawn) [Compound 1], in assay [1], the “fluorescent staining of cellular vesicle of HEK293 cell” value is “can fluorescently stain”. In addition, the “specificity of fluorescent staining in the presence of foreign substances” value in assay [2] is “can specifically fluorescently stain cellular vesicles”. The “specificity of fluorescent staining to cellular vesicles” value in assay [3] is recorded as “high specificity to cellular vesicles”. Besides, the “staining of cellular vesicles of living cells versus dead cells” value in assay [4] was “fluorescently stains cellular vesicles of living cells”. The “fluorescence intensity versus amount of added milk exosomes” value in the assay on milk exosomes [5] is “the fluorescence intensity increased depending on the amount of externally added milk exosomes”. The “fluorescence with milk exosomes added” value in the assay with milk exosomes [6] (10 ng milk exosomes, excitation 302 nm) was “conjugates with exosomes that are cellular vesicles and emits fluorescence”. Moreover, the “fluorescence without milk exosomes (Comparative example 3)” value in the assay on milk exosomes [6] (no milk exosome added) was “no fluorescence was emitted”. Further, the “overlap of compound fluorescence with fluorescence of the antibody conjugated with CD63” value in [7] (0.3 μM, fixed, anti-CD63 antibody excited at 540 nm) is recorded as “overlap each other”. Moreover, in [7] (final concentration 0.3 μM, 5 minutes, excitation 470 nm), the “fluorescent staining of cellular vesicles” value is listed as “can fluorescently stain cellular vesicles”. Moreover, the “fluorescent staining of PIKfyve dependent cellular vesicles” value in [8] (before/after PIKfyve inhibitor 10 μM 1 hour) is “can also fluorescently stain the PIKfyve dependent cellular vesicles”. Besides, the “fluorescent staining of autophagosome membrane” value in assay [8] (cultured 3 hours after removal of PIKfyve inhibitor) is “the autophagosome membrane enclosing the melanosome was fluorescently stained”. Besides, the “fluorescent staining of cellular vesicle of PSVK1 cell” value in assay [9] is listed as “can fluorescently stain”. The “incorporation of exosomes labeled with the compound into cells” value in [10] (HEK293A cells, 12 hours after addition) is on record as “are incorporated into cells”. For the same compound, the “conjugation with exosomes (overlap with ExoSparkler Mem Dye-Red fluorescence)” value in [10] (milk exosomes stained 5 minutes with 0.3 μM) is listed as “specifically conjugates with the exosomes”.

For `CCCCC/C=C/C(=O)CCc1ccc(O)c(OC)c1` [melanosome uptake inhibitor, 6-shogaol], in assay [11], the “incorporation of labeled melanosomes into keratinocyte cells” value is “incorporation of the labeled melanosomes into keratinocyte cells is inhibited”.
